The values below come from patent US20170226139A1, “CRYSTALLINE SALTS OF (Z)-O-OCTADEC-9-EN-1-YL O,O-DIHYDROGEN PHOSPHOROTHIOATE” (priority 2013, published 2017).

Read-outs that look alike come from different tables or passages of the source. Bounds are passed on as bounds.

One data set relates to Control CHO. The data set is described as follows: Calcium-mobilization assay, untransfected Control CHO cells. Format: cell-based, Chinese hamster. The following applies: Cricetulus griseus, CHO. As to the method: We investigated structure-activity relationships across species, LPAR subtypes and between Rx100 and two known process impurities encountered in manufacture: Rx103 (‘E’ isomer) and Rx200 (oleyl phosphate and impurity, which can be an Rx100 degradant along with oleyl alcohol). Rx100, Rx103, Rx200 and native LPA were investigated at different human LPAR subtypes. In addition, the activity of these compounds was evaluated at LPA2 receptors from the rhesus, rat and mouse species. Human LPA1/2/3 subtypes were transfected into mouse embryonic fibroblasts (MEF) or rat hepatoma cells (RH7777)—both of which are normally non-responsive or null to LPA. Human LPA4 was transfected into Chinese hamster ovary (CHO) cells and LPA5 into the B103 neuroblastoma cell line. […] The B103 rat neuroblastoma cell line is endogenously nonresponsive to LPA but expresses heterologous LPA5 receptors well. […] LPAR activation elicits a G-protein-mediated transient rise in intracellular calcium level that is proportional to the concentration of LPA applied. The intracellular calcium level was quantified by the calcium-selective fluorescent indicator FURA-2 (e.g., increased intracellular calcium surge=increased fluorescence).

Data set [1] is described as follows: Single subcutaneous dose pharmacokinetics in irradiated and unirradiated mice. Format: in vivo, C57BL/6 mice. The conditions noted are these: single SC dose 1 mg/kg, 1 mg/kg; for AUC(0-inf): read-out: AUCINF_obs. The source says: We performed a randomized, open-label, single-dose, four-arm, subcutaneously-administered, study of the pharmacokinetics of Rx100.Ammonia and Rx100.Lysine in irradiated and unirradiated C57BL/6 mice to evaluate the effect of salt form and irradiation on extravascular pharmacokinetics. The purpose of this study was to evaluate the pharmacokinetic parameters for two salt forms of Rx100 (Lysine and Ammonia) in healthy and PB irradiated (IR) mice when administered as a single dose. Each animal received a 1 mg/kg dose of Rx100.Lysine or Rx100.Ammonia. The animals receiving Rx100.Lysine or Rx100.Ammonia after irradiation were dosed 26±2 hours after irradiation and sampling times are relative to the time of test article dosing.
More specifically, randomized, acclimated, C57BL/6 mice were administered Rx100.Lysine or Rx100.Ammonia (10 mM L-histidine in sterile water for injection, or 1% ethanol, 2% propylene glycol in PBS, respectively) as a single dose as indicated in Table 25.
Blood was collected from 4 male and 4 female mice via cardiac puncture at pre-defined time points relative to test article dosing (0.5, 1, 2, 4, 6, 8, 12, 18, 24, and 48 hours) and collected into micro plasma separator vials (BD Microtainer®) containing lithium heparin. Blood was maintained on ice until centrifugation and subsequent processing. Blood draws were a terminal procedure. Plasma was frozen at −80° C. until submitted for bioanalysis. Sample collection was completed in September 2012. Samples were transferred to Covance in December 2013, and sample analysis was complete in the first quarter of 2014.
A total of 160 male and 160 female C57BL/6 10-12 week old mice were used in this study. Animals were randomized with weight stratification into treatment groups and given a second ear tag. Animals were acclimated for 16-19 days (See below Table 26). Prior to irradiation or dosing (in non-irradiated groups), animals were weighed a second time which was the basis of the animal dose delivered.
TLDs were used for dosimetry and confirmation of the delivered dose. TLDs were analyzed by MD Anderson and have a +/−5% accuracy. A total of 19 dosimeters were used with a mean measured dose of 15.33±0.166 Gy.
Analysis was performed using qualified and validated Phoenix® WinNonlin® Software. The final data provided was imported into Phoenix® WinNonlin®. All data presented in the tables and figures within the results section of this report were generated using the validated Phoenix® WinNonlin® Software.

A short description of data set [2]: Solubility by incremental addition method in water or simulated formulation solvent.
Where [3] appears, read: + IR (irradiated mice), whole group (not split by gender), listed as Rx100.Lysine.
The mark [4] stands for this setting: healthy mice, F, listed as Rx100.Lysine.
[5] abbreviates: healthy mice, M, listed as Rx100.Lysine.
Setting [6] is: healthy mice, whole group (not split by gender), listed as Rx100.Lysine.
Setting [7] is: irradiated mice (15.6 Gy, dosed 26 ± 2 h after), F, listed as Rx100.Lysine.
Where [8] appears, read: irradiated mice (15.6 Gy, dosed 26 ± 2 h after), M, listed as Rx100.Lysine.

One may read the EC50 as the concentration that produces a half-maximal response. For orientation: Emax means the maximal effect, on the per cent scale that the assay sets. Regarding `CCCCCCCC/C=C\CCCCCCCCOP(O)(O)=S` [Rx100, (Z)—O-octadec-9-en-1-yl O,O-dihydrogen phosphorothioate], the concentration giving a half-maximal response (EC50) in the data set with Control CHO is above 5 µM. For the same compound, the Emax in the data set with Control CHO (read-out: Emax (% of LPA)) came out at 20%.
The term Cmax denotes the maximum level reached in the sampled fluid or tissue. One may read the AUC as concentration integrated over time. `CCCCCCCC/C=C\CCCCCCCCOP(O)(O)=S` [Rx100.L-Lysine, (Z)—O-octadec-9-en-1-yl O,O-dihydrogen phosphorothioate]: the Cmax in data set [1] (IR males, listed as Rx100.Lysine) was 299 ng/mL; in data set [1] (both sexes, C57BL/6, mouse, plasma, sc, + IR (irradiated mice), whole group (not split by gender), read-out: Cmax) it was 323 ng/mL; in data set [1] (both sexes, C57BL/6, mouse, plasma, sc, healthy mice, whole group (not split by gender), read-out: Cmax), 512 ng/mL; in data set [1] (female, C57BL/6, mouse, plasma, sc, IR females, read-out: Cmax) it was 355 ng/mL; in data set [1] (female, C57BL/6, mouse, plasma, sc, healthy females, read-out: Cmax), 455 ng/mL; in data set [1] (female, C57BL/6, mouse, plasma, sc, healthy mice, F, read-out: Cmax), 454 ng/mL. Further, the peak concentration (Cmax) in data set [1] (female, C57BL/6, mouse, plasma, sc, irradiated mice (15.6 Gy, dosed 26 ± 2 h after), F, read-out: Cmax) came to 355 ng/mL; in data set [1] (male, C57BL/6, mouse, plasma, sc, healthy males, read-out: Cmax), 570 ng/mL; in data set [1] (male, C57BL/6, mouse, plasma, sc, healthy mice, M, read-out: Cmax), 570 ng/mL; in data set [1] (setting [8]), 298.75 ng/mL. Also, the AUC(0-inf) in data set [1] (both sexes, C57BL/6, mouse, plasma, sc, + IR (irradiated mice), whole group (not split by gender)) worked out at 1210 ng·h/mL; in data set [1] (both sexes, C57BL/6, mouse, plasma, sc, healthy mice, whole group (not split by gender)), 1660 ng·h/mL; in data set [1] (female, C57BL/6, mouse, plasma, sc, healthy mice, F), 1590 ng·h/mL; in data set [1] (female, C57BL/6, mouse, plasma, sc, irradiated mice (15.6 Gy, dosed 26 ± 2 h after), F), 1240 ng·h/mL; in data set [1] (male, C57BL/6, mouse, plasma, sc, healthy mice, M), 1750 ng·h/mL; in data set [1] (male, C57BL/6, mouse, plasma, sc, irradiated mice (15.6 Gy, dosed 26 ± 2 h after), M), 1170 ng·h/mL. For the same compound, the exposure (AUC) was found to be 1240 ng·h/mL in data set [1] (female, C57BL/6, mouse, plasma, sc, IR females, read-out: AUC); 1590 ng·h/mL in data set [1] (female, C57BL/6, mouse, plasma, sc, healthy females, read-out: exposure (AUC)); 1170 ng·h/mL in data set [1] (male, C57BL/6, mouse, plasma, sc, IR males, read-out: AUC); 1750 ng·h/mL in data set [1] (male, C57BL/6, mouse, plasma, sc, healthy males, read-out: AUC). Also, the CLss_F in data set [1] (setting [3]) was determined as 13.822 mL/min/kg; in data set [1] (setting [4]) it was 10.462 mL/min/kg; in data set [1] (setting [5]), 9.5183 mL/min/kg; in data set [1] (setting [6]), 10.032 mL/min/kg; in data set [1] (setting [7]), 13.466 mL/min/kg; in data set [1] (setting [8]), 14.264 mL/min/kg. For the same compound, the HL_Lambda_z amounted to 1.44 h in data set [1] (setting [3]); 1.84 h in data set [1] (setting [4]); 1.91 h in data set [1] (setting [5]); 1.16 h in data set [1] (setting [6]); 1.87 h in data set [1] (setting [7]); 1.32 h in data set [1] (setting [8]). The Vz_F in data set [1] (setting [3]) was determined as 1.72242 L/kg; in data set [1] (setting [4]), 1.66432 L/kg; in data set [1] (setting [5]), 1.57087 L/kg; in data set [1] (setting [6]) it was 1.00622 L/kg; in data set [1] (setting [7]), 2.17384 L/kg; in data set [1] (setting [8]), 1.62547 L/kg. Moreover, the “Solubility in water” value in data set [2] is “soluble in water”; in data set [2] (listed as L-Lysine salt), “soluble”. The “Solubility in the simulated formulation solvent” value in data set [2] (3% polyethylene glycol 200, 1% ethanol, 10 mM monosodium phosphate, balance water) is given as “soluble”.
